Two molecules from the NIST ThermoML archive (doi:10.1021/je030156p) can be followed below.

For the data set the following is noted: Liquid, Ebulliometric method (Recirculating still).

Molecules are shown by their SMILES. ± gives the expanded uncertainty stated by the source.

The term vapor or sublimation pressure denotes the pressure of vapour in equilibrium with the condensed phase.

Regarding `CCC` [propane], the “vapor or sublimation pressure” value came out at 407.9 ± 2 kPa (268.15 K); 476.9 ± 2 kPa (273.15 K); 637.2 ± 2.1 kPa (283.15 K); 839.2 ± 2.1 kPa (293.15 K); 1074.6 ± 2.1 kPa (303.15 K); 1364.3 ± 2.2 kPa (313.15 K).

For `FC(F)C(F)(F)F` [pentafluoroethane], the “vapor or sublimation pressure” value is 573.7 ± 2 kPa (268.15 K); 671.4 ± 2.1 kPa (273.15 K); 907.6 ± 2.1 kPa (283.15 K); 1202.8 ± 2.1 kPa (293.15 K); 1566 ± 2.2 kPa (303.15 K); 2004.9 ± 2.2 kPa (313.15 K).
